Results on three substances are retold here after PMC12180637, “Active peptides of TSP-1 inhibit retinal angiogenesis through the CD36 pathway in a rat model of choroidal neovascularization” (PLOS One, 2025).

“And” between values parts separate entries of the source, which are not always exact repeats. Equal values may be shown once. Square brackets hold non-standard residues; d marks the D form. Nva = CCC[C@H](N)C(=O)O; Sar = CNCC(=O)O

For assay [1], the system named is VEGF-induced angiogenesis. As to conditions: cited from earlier work. The text has this: (§1) Additionally, TSP-1 could interact with various ligands, including extrac ...
Assay [2] concerns tumor growth. As to conditions: cited from earlier work; for apoptotic index of endothelial cells (in words): in vivo studies, mouse tumor models; for tumor growth (in words): syngeneic and xenograft mouse models.
Source text: as §1

Assay [3] deals with RF/6A cells. Briefly: Wound-healing assay. The class given is cell-based. As to conditions: 1 ng/mL exogenous VEGF, 24 h. The protocol:
(§2) RF/6A cells were obtained from Cell Cook, China. The cells were maintained in minimum essential medium supplemented with 10% fetal Bovine serum (Viva Cell, China) and 1% penicillin-streptomycin solution (Viva Cell, China). Additionally, the samples were cultured in an incubator under the condition of 37 °C and 5% CO2.
After the drawing of 3 parallel lines at the external bottom surface of a 6-well plate, 4 × 10^5 RF/6A cells were seeded in it and incubated to a density of 80–90%. Next, scratches perpendicular to the drawn lines were made at the bottom of each well by a 200 μL pipette tip. Subsequently, the wells were rinsed three times with PBS to eliminate the floating cells. Whereafter, the medium was replaced with the serum that contained 1% fetal bovine. The wound healing process was assessed at the time point of 0 h and 24 h, alongside the acquirement of microscope images at 10× for the record and statistical analysis of the scratch distance. Additionally, the scratch healing rate was calculated as follows:
Scratch_healing_rate=0h_scratch_distance−24h_scratch_distance/0h_scratch_distance100% (1)

Assay [4] deals with RF/6A cells. Briefly: CCK-8 cell viability assay. It is filed as cell-based. As to conditions: CCK-8, different concentrations of recombinant human VEGF165 (S2 Fig A). The protocol: as §2
(§3) The Cell Counting Kit-8 (CCK-8) from Proteintech (China) and 5-ethynyl-2′-deoxyuridine (EdU)-488™ kit from Beyotime (China) were employed for the assessment of the proliferative viability of RF/6A cell. Additionally, 10^4 cells were plated in 96-well plates. After 24 h of intervention, according to different groups, CCK-8 detection reagent was added, and the optical density was recorded at 450 nm during the following 4 h. Regarding the EdU assay, 2 × 10^4 cells were cultured in 24-well plates after 24 h of intervention according to different groups. Firstly, the EdU working solution (20μM) preheated at 37 ° C was combined with medium at the ratio of 1:1. Secondly, the cells were washed three times with (phosphate buffered saline) PBS after the fixing with 4% paraformaldehyde for 15 min. Subsequently, the samples were permeabilized with PBS that contained 0.3% Triton X-100 for 10 min, followed by three times of washing with PBS, after which the EdU detection was conducted. […] Finally, fluorescence detection was performed after nuclear staining by Hoechst 33342.

The subject of assay [5] is RF/6A cells. Briefly: EdU proliferation assay. It is filed as cell-based. As to conditions: Fig 2 data, 1 ng/mL exogenous VEGF alone, 24 h, single replicates (n = 4). How it is done:
as §2, §3

The subject of assay [6] is VEGF. Kind of assay: Western blot of VEGF in RF/6A cells. It is filed as cell-based. As to conditions: exogenous VEGF 1 ng/mL. The protocol:
(§4) Western blot analysis was employed in this study for the assessment of the expression levels of proteins. Total protein was extracted with Radioimmunoprecipitation (RIPA) buffer (Solarbio, China) that contained phenylmethanesulfonyl fluoride (PMSF), followed by separation by 10% sodium dodecyl sulfate–polyacrylamide gel electrophoresis (SDS-PAGE, Yazyme, China). Additionally, the constant pressure of 80 V was used for 40–50 min during the electrophoresis of the proteins in compression gel. Besides, the voltage was adjusted to 120 V after the entering of proteins to the separating gel. Subsequently, proteins were transferred onto a polyvinylidene difluoride (PVDF) membrane (Millipore, USA), and the operation time was determined according to the molecular weight of the protein (VEGF-55 min, CD31-91 min). The membrane was blocked with 5% non-fat milk for 2 h and incubated with primary antibodies overnight at 4 °C, and the primary antibody was diluted with Tris-Buffered Saline with Tween 20 (TBST) following the instructions. Subsequently, the samples were washed three times with TBST, incubated with the corresponding secondary antibody for 90 min at room temperature, and washed three times with TBST. Besides, Electrochemiluminescence (Invitrogen iBright™ FL1500) was used for the visualization of proteins, followed by the imaging analysis of the experimental results. […]

The subject of assay [7] is CD31. Kind of assay: Western blot of CD31 in RF/6A cells. The class given is cell-based. As to conditions: exogenous VEGF 1 ng/mL. How it is done:
as §4
(A western blot detects proteins with antibodies after separation by electrophoresis.)

Assay [8] deals with RF/6A cells. Kind of assay: Flow cytometry, total apoptosis rate. It is filed as cell-based. A general note: A flow cytometer gives signals particle by particle.
For assay [9], the system named is CD36 knockdown RF/6A cells. Kind of assay: EdU assay in CD36 knockdown cells. It is filed as cell-based. As to conditions: Fig 5 data, exogenous VEGF alone, single replicates (n = 4). How it is done:
The Cell Counting Kit-8 (CCK-8) from Proteintech (China) and 5-ethynyl-2′-deoxyuridine (EdU)-488™ kit from Beyotime (China) were employed for the assessment of the proliferative viability of RF/6A cell. Additionally, 10^4 cells were plated in 96-well plates. After 24 h of intervention, according to different groups, CCK-8 detection reagent was added, and the optical density was recorded at 450 nm during the following 4 h. Regarding the EdU assay, 2 × 10^4 cells were cultured in 24-well plates after 24 h of intervention according to different groups. Firstly, the EdU working solution (20μM) preheated at 37 ° C was combined with medium at the ratio of 1:1. Secondly, the cells were washed three times with (phosphate buffered saline) PBS after the fixing with 4% paraformaldehyde for 15 min. Subsequently, the samples were permeabilized with PBS that contained 0.3% Triton X-100 for 10 min, followed by three times of washing with PBS, after which the EdU detection was conducted. Whereafter, 100 μL Click reaction solution was added to each well and incubated at room temperature in the dark for 30 min, followed by washing again with PBS, the Click reaction solution configuration method was shown in Table 1. Finally, fluorescence detection was performed after nuclear staining by Hoechst 33342. […]

The conditions of assay [10]: stated in brackets for the recombinant human VEGF165 protein used; no test or source described; cited from earlier work. The protocol: CCK-8 and EdU assays were conducted to evaluate the cellular proliferation after a 24 h exposure to exogenous VEGF, which was amined to analyze the impact of 10 μg/mL VR-13 peptide on RF/6A cell proliferation induced through exogenous VEGF.

Consider “Ac-Sar-Gly-Val-Dallolle-Thr-Nva-Ile-Arg-Pro-NHEt [ABT-510, anti-angiogenic nonapeptide based on TSP-1 type I repeats]”, for which, in assay [1], the “VEGF-induced angiogenesis (in words)” value was “inhibit VEGF-induced angiogenesis”. In [2], the “apoptotic index of endothelial cells (in words)” value is “increase of the apoptotic index of endothelial cells” and the “tumor growth (in words)” value was “slow down the tumor growth”.
As to “Ac-[Sar]GV[dI]T[Nva]IRP-NHEt [ABT-526, anti-angiogenic nonapeptide based on TSP-1 type I repeats]”, in assay [2], the “apoptotic index of endothelial cells (in words)” value is recorded as “increase of the apoptotic index of endothelial cells” and the “tumor growth (in words)” value is on record as “slow down the tumor growth”.
A word on the EC50: it is the concentration that produces a half-maximal response. In the case of VEGF, the “migration of RF/6A cells exposed to VEGF (in words)” value in [3] is listed as “strong cell migration ability”. Also, the “optimal concentration for inducing significant proliferation of RF/6A” value in assay [4] came to 1 ng/mL. Also, the “EdU positive(%)” value in assay [5] is 37.99% and 38.36% and 36.47% and 33.64%; in assay [9], 24% and 28.99% and 30.32% and 23.72%. The “VEGF expression in RF/6A cells after exogenous VEGF (in words)” value in [6] is reported as “significantly upregulated”. The “CD31 expression in RF/6A cells after exogenous VEGF (in words)” value in assay [7] is listed as “significantly upregulated”. Further, the apoptosis rate in assay [8] (Fig 3 data, RF/6A, 1 ng/mL exogenous VEGF alone, single replicates (n = 6)) is 8.99 and 11.46 and 10.46 and 11.80 and 11.97 and 12.71. For the same substance, the “apoptosis of RF/6A cells after exogenous VEGF (in words)” value in assay [8] (exogenous VEGF) is “didn’t exhibit a connection with apoptosis”. In addition, the concentration for a half-maximal effect (EC50) in [10] was 0.3 to 3.75 ng/mL.
